In patent publication US20230102554A1 (GB002, INC., priority 2019, published 2023) one finds IC50 data, which are given here for 12 molecules.

The target of experiment [1] is T1, Human PDGFRα, cytoplasmic domain (GST-PDGFRα) (Homo sapiens, UniProt P16234).
T1 construct: made in house
Put plainly: Human PDGFRα biochemical inhibition assay (off-chip Mobility Shift Assay).

Experiment [2] deals with T2, Human PDGFRβ, cytoplasmic domain (GST-PDGFRβ) (Homo sapiens, UniProt P09619).
T2 construct: made in house
T2 sequence (P09619 with tags, fused parts or gaps): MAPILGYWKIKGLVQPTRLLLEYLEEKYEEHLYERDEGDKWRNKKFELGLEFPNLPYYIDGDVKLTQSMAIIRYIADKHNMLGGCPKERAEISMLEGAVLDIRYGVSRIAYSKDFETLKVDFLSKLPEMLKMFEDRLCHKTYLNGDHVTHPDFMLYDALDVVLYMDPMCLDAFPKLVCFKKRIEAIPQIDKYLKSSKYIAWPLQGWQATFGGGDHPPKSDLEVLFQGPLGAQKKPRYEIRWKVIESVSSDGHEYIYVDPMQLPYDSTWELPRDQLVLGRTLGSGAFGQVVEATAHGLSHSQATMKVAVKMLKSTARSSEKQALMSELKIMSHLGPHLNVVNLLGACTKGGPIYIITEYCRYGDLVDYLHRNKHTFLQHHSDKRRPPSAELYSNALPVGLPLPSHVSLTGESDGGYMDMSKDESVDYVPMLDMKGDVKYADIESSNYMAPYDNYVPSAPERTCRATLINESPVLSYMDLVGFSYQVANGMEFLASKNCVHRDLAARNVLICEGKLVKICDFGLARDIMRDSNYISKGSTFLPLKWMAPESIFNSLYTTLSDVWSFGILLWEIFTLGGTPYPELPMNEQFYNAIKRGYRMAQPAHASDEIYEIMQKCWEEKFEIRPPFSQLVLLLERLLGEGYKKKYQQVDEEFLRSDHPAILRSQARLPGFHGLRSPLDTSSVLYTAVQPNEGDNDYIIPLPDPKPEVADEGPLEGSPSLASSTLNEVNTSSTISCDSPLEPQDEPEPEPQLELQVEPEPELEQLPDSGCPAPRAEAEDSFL
Description: Human PDGFRβ biochemical inhibition assay (off-chip Mobility Shift Assay). The procedure:
Human PDGFRβ Biochemical Inhibition Assay
The compounds described herein were tested for the ability to inhibit activity of PDGFRβ which was achieved via use of an off-chip Mobility Shift Assay (MSA). Human PDGFRβ, cytoplasmic domain [557-1106 (end) amino acids of accession number NP_002600.1 (SEQ ID NO: 3)] was expressed as N-terminal GST-fusion protein (88 kDa) using baculovirus expression system (SEQ ID NO: 4). GST-PDGFRβ was purified by using glutathione sepharose chromatography. Test compounds were dissolved in and diluted with dimethylsulfoxide (DMSO) to achieve 1 mM concentration. Then the solution was further diluted 25-fold with assay buffer to make the final test compound solution. The reference compound, Staurosporine, used as the assay positive control was prepared similarly. The 4× compound solution/substrate (CSKtide, 1000 nM)/ATP (Km ATP)/Mg Metal (5 mM) was prepared with kit buffer (20 mM HEPES, 0.01% Triton X-100, 5 mM DTT, pH 7.5), and 2× kinase solution was prepared with assay buffer (20 mM HEPES, 0.01% Triton X-100, 1 mM DTT, pH 7.5). The 5 μL of 4× compound solution, […] of 4× Substrate/ATP/Metal solution, and […] of 2× kinase solution were mixed and incubated in a well of polypropylene 384 well microplate for 1 hour at room temperature. […] of Termination Buffer (QuickScout Screening Assist MSA; Carna Biosciences) was added to the well. The reaction mixture was applied to LabChip™ system (Perkin Elmer), and the product and substrate peptide peaks were separated and quantitated. The kinase reaction was evaluated by the product ratio calculated from peak heights of product(P) and substrate(S) peptides (P/(P+S)). The readout value of reaction control (complete reaction mixture) was set as a 0% inhibition, and the readout value of background (Enzyme(−)) was set as a 100% inhibition, then the percent inhibition of each test solution was calculated.
With respect to PDGFRβ activity: “+++” denotes an IC50 of less than 300 nM; “++” denotes an IC50 of from 300 nM to less than 1000 nM; and “+” denotes an IC50 of 1000 nM or more.

T1 sequence (P16234 550-1089 T674I): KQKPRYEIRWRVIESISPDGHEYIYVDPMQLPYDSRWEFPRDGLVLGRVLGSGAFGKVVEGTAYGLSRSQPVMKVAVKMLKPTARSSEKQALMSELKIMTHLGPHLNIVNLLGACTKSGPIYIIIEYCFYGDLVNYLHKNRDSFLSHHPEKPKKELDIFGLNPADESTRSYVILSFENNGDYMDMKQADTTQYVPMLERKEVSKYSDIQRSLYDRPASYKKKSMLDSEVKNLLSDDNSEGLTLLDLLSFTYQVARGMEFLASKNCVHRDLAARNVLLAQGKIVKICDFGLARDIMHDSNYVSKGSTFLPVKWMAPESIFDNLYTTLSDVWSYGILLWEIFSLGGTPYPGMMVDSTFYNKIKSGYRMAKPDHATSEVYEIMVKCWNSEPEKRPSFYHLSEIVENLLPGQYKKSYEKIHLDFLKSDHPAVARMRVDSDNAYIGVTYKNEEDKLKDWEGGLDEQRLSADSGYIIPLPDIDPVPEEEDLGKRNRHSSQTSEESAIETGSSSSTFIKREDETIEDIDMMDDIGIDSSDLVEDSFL

As a reminder, the IC50 is the point on the concentration scale where inhibition reaches its midpoint. On to `CCn1cc2ncc(N[C@@H](C)c3cccc(NC(=O)Cc4ccc(F)cc4)c3)nc2n1` [Compound 638, (S)-N-(3-(1-((2-ethyl-2H-pyrazolo[3,4-b]pyrazin-6-yl)amino)ethyl)phenyl)-2-(4-fluorophenyl)acetamide], for which the IC50 in experiment [1] and in experiment [2] was < 300 nM in each case.

As to `Cc1cncc(C(=O)Nc2cccc([C@H](C)Nc3cnc4cccc(Cl)c4n3)c2)c1` [Compound 37, (S)-N-(3-(1-((8-chloroquinoxalin-2-yl)amino)ethyl)phenyl)-5-methylnicotinamide], the IC50 in experiment [1] and in experiment [2] was < 300 nM throughout.

Regarding `CCn1cc2ncc(N[C@@H](C)c3cccc(NC(=O)c4ccc(CN5C[C@@H](C)O[C@@H](C)C5)c(C)c4)c3)nc2n1` [Compound 478, 4-(((2S,6R)-2,6-dimethylmorpholino)methyl)-N-(3-((S)-1-((2-ethyl-2H-pyrazolo[3,4-b]pyrazin-6-yl)amino)ethyl)phenyl)-3-methylbenzamide], the IC50 was < 300 nM in experiment [1] and 300 to 1000 nM in experiment [2].

On to `CCNc1ncc(C(=O)Nc2cccc([C@H](C)Nc3cnc4cnn(C)c4n3)c2)cc1C` [Compound 194, (S)-6-(ethylamino)-5-methyl-N-(3-(1-((1-methyl-1H-pyrazolo[3,4-b]pyrazin-6-yl)amino)ethyl)phenyl) nicotinamide], for which the IC50 in experiment [1] and in experiment [2] was < 300 nM each time.

Consider `C[C@H](Nc1cnc2cnn(C)c2n1)c1cccc(NC(=O)c2cncc(C3COC3)c2)c1` [Compound 114, (S)-N-(3-(1-((1-methyl-1H-pyrazolo[3,4-b]pyrazin-6-yl)amino)ethyl)phenyl)-5-(oxetan-3-yl)nicotinamide], for which the IC50 in experiment [1] and in experiment [2] was < 300 nM each time.

Take `Cc1c[nH]c2ncc(N[C@@H](C)c3cccc(NC(=O)c4ccc(OC(F)(F)F)nc4)c3)nc12` [Compound 568, (S)-N-(3-(1-((7-methyl-5H-pyrrolo[2,3-b]pyrazin-2-yl)amino)ethyl)phenyl)-6-(trifluoromethoxy)nicotinamide]: the IC50 in experiment [1] was 300 to 1000 nM; in experiment [2], ≥ 1000 nM.

With `CSc1cccc(C(=O)Nc2cccc([C@H](C)Nc3cnc4cnn(C)c4n3)c2)c1` [Compound 224, (S)-N-(3-(1-((1-methyl-1H-pyrazolo[3,4-b]pyrazin-6-yl)amino)ethyl)phenyl)-3-(methylthio)benzamide], the IC50 in experiment [1] and in experiment [2] was < 300 nM in each case.

For the molecule `C[C@H](Nc1cnc2cnn(C)c2n1)c1cccc(NC(=O)c2cc(C(C)(C)C)n(C)n2)c1` [Compound 166, (S)-5-(tert-butyl)-1-methyl-N-(3-(1-((1-methyl-1H-pyrazolo[3,4-b]pyrazin-6-yl)amino)ethyl)phenyl)-1H-pyrazole-3-carboxamide], the IC50 in experiment [1] and in experiment [2] was < 300 nM in each case.

On to `C[C@H](Nc1cnc2cnn(C)c2n1)c1cccc(NC(=O)c2ccc(C(F)(F)F)nc2)c1` [Compound 115, (S)-N-(3-(1-((1-methyl-1H-pyrazolo[3,4-b]pyrazin-6-yl)amino)ethyl)phenyl)-6-(trifluoromethyl)nicotinamide], for which the IC50 in experiment [1] and in experiment [2] was < 300 nM throughout.

With `CCn1cc2ncc(N[C@@H](C)c3cccc(NC(=O)c4cncc(C)c4)c3)nc2n1` [Compound 9, (S)—N-(3-(1-((2-ethyl-2H-pyrazolo[3,4-b]pyrazin-6-yl)amino)ethyl)phenyl)-5-methylnicotinamide], the IC50 in experiment [1] is < 300 nM; in experiment [2], 300 to 1000 nM.

In the case of `C=Cc1ccc(C(=O)Nc2cccc([C@H](C)Nc3cnc4cnn(C)c4n3)c2)cc1C` [Compound 246, (S)-3-methyl-N-(3-(1-((1-methyl-1H-pyrazolo[3,4-b]pyrazin-6-yl)amino)ethyl)phenyl)-4-vinylbenzamide], the IC50 in experiment [1] and in experiment [2] was < 300 nM in each case.

As to `CSc1cncc(C(=O)Nc2cccc([C@H](C)Nc3cnc4cnn(C)c4n3)c2)c1` [Compound 225], the IC50 in experiment [2] is < 300 nM.
